Results as given in patent publication US11053204B2, “Pyrimidinyloxy benzene derivatives as herbicides” (FMC Corporation, priority 2015, dated 2021).

Tests used:
Format in all cases: in vivo
[1] = tested on: pigweed, palmer (palmer pigweed, Amaranthus palmeri); assay: Test C preemergence, plant response rating
kochia (Kochia scoparia) [2] = assay: Test C preemergence, plant response rating
[3] = tested on: barnyardgrass (Echinochloa crus-galli); assay: Test A preemergence, visual injury rating; settings: 0 to 100 scale (0 no effect, 100 complete control); for Plant response rating, Barnyardgrass: 125 g ai/ha; for Barnyardgrass plant response rating: 500 g ai/ha
Method in brief: (§1)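 Compounds in non-phytotoxic solvent with surfactant applied as soil spray preemergence, or postemergence to plants 2-10 cm at one- to two-leaf stage, in loam/sand. After approximately 10 days in greenhouse, injury rated visually versus untreated controls, 0 (no effect) to 100 (complete control).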

kochia (Kochia scoparia) [4] = assay: Test A preemergence, visual injury rating; settings: 0 to 100 scale (0 no effect, 100 complete control); for Plant response rating, Kochia: 125 g ai/ha; for Kochia plant response rating: 500 g ai/ha
Method in brief: as §1

[5] = tested on: giant foxtail (Setaria faberii); assay: Test A preemergence, visual injury rating; settings: 0 to 100 scale (0 no effect, 100 complete control); for Plant response rating, Foxtail, Giant: 125 g ai/ha; for Foxtail, Giant plant response rating: 500 g ai/ha
Method in brief: as §1

[6] = tested on: pigweed (Amaranthus retroflexus); assay: Test A preemergence, visual injury rating; settings: 0 to 100 scale (0 no effect, 100 complete control); for Plant response rating, Pigweed: 125 g ai/ha; for Pigweed plant response rating: 500 g ai/ha
Method in brief: as §1

[7] = tested on: ragweed (common ragweed, Ambrosia elatior); assay: Test A preemergence, visual injury rating; settings: 0 to 100 scale (0 no effect, 100 complete control); for Plant response rating, Ragweed: 125 g ai/ha; for Ragweed plant response rating: 500 g ai/ha
Method in brief: as §1

[8] = tested on: Italian ryegrass (Lolium multiflorum); assay: Test A preemergence, visual injury rating; settings: 0 to 100 scale (0 no effect, 100 complete control); for Plant response rating, Ryegrass, Italian: 125 g ai/ha; for Ryegrass, Italian plant response rating: 500 g ai/ha
Method in brief: as §1

[9] = tested on: wild mustard (Sinapis arvensis); assay: Test C postemergence, plant response rating; settings: for Mustard, Wild plant response rating: scale 0 to 100 (0 no effect, 100 complete control)
Method in brief: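 Pre-emergence: seeds sown in loam soil–sand blend or silt loam and sprayed with test chemicals in a non-phytotoxic solvent mixture with surfactant. Post-emergence: plants 2 to 18 cm (1- to 4-leaf stage) in peat-based potting medium, same formulation. Greenhouse 13 to 15 d; visual rating 0 (no effect) to 100 (complete control) versus controls.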

[10] = tested on: barnyardgrass (Echinochloa crus-galli); assay: Test A postemergence, visual injury rating; settings: 0 is no effect, 100 is complete control; for Barnyardgrass plant response rating: 125 g ai/ha, 0 to 100 scale, approximately 10 days; for Barnyardgrass plant response rating (0 to 100 scale): 500 g ai/ha
Method in brief: as §1

kochia (Kochia scoparia) [11] = assay: Test A postemergence, visual injury rating; settings: 0 is no effect, 100 is complete control; for Kochia plant response rating: 125 g ai/ha, 0 to 100 scale, approximately 10 days; for Kochia plant response rating (0 to 100 scale): 500 g ai/ha
Method in brief: as §1

[12] = tested on: giant foxtail (Setaria faberii); assay: Test A postemergence, visual injury rating; settings: 0 is no effect, 100 is complete control; for Foxtail, Giant plant response rating: 125 g ai/ha, 0 to 100 scale, approximately 10 days; for Foxtail, Giant plant response rating (0 to 100 scale): 500 g ai/ha
Method in brief: as §1

[13] = tested on: galium (catchweed bedstraw, Galium aparine); assay: Test A postemergence, visual injury rating; settings: 0 is no effect, 100 is complete control; for Galium plant response rating: 125 g ai/ha, 0 to 100 scale, approximately 10 days; for Galium plant response rating (0 to 100 scale): 500 g ai/ha
Method in brief: as §1

corn (Zea mays) = assay: Test A postemergence, visual injury rating; settings: 0 is no effect, 100 is complete control; for Corn plant response rating: 125 g ai/ha, 0 to 100 scale, approximately 10 days; for Corn plant response rating (0 to 100 scale): 500 g ai/ha
Method in brief: as §1

[14] = tested on: pigweed (Amaranthus retroflexus); assay: Test A postemergence, visual injury rating; settings: 0 is no effect, 100 is complete control; for Pigweed plant response rating: 125 g ai/ha, 0 to 100 scale, approximately 10 days; for Pigweed plant response rating (0 to 100 scale): 500 g ai/ha
Method in brief: as §1

[15] = tested on: blackgrass (Alopecurus myosuroides); assay: Test A postemergence, visual injury rating; settings: 0 is no effect, 100 is complete control; for Blackgrass plant response rating: 125 g ai/ha, 0 to 100 scale, approximately 10 days; for Blackgrass plant response rating (0 to 100 scale): 500 g ai/ha
Method in brief: as §1

[16] = tested on: ragweed (common ragweed, Ambrosia elatior); assay: Test A postemergence, visual injury rating; settings: 0 is no effect, 100 is complete control; for Ragweed plant response rating: 125 g ai/ha, 0 to 100 scale, approximately 10 days; for Ragweed plant response rating (0 to 100 scale): 500 g ai/ha
Method in brief: as §1

[17] = tested on: Italian ryegrass (Lolium multiflorum); assay: Test A postemergence, visual injury rating; settings: 0 is no effect, 100 is complete control; for Ryegrass, Italian plant response rating: 125 g ai/ha, 0 to 100 scale, approximately 10 days; for Ryegrass, Italian plant response rating (0 to 100 scale): 500 g ai/ha
Method in brief: as §1

[18] = tested on: wheat (Triticum aestivum); assay: Test A postemergence, visual injury rating; settings: 0 is no effect, 100 is complete control; for Wheat plant response rating: 125 g ai/ha, 0 to 100 scale, approximately 10 days; for Wheat plant response rating (0 to 100 scale): 500 g ai/ha
Method in brief: as §1

[19] = tested on: surinam grass (Brachiaria decumbens); assay: Test C preemergence, plant response rating

## CCCCC(=O)c1c(Oc2ncc(Cl)cn2)cccc1C(F)(F)F [Compound 130]
[1]; 31 g ai/ha, scale 0 to 100
  Plant response rating, Pigweed, Palmer: 75
[1]; 62 g ai/ha, scale 0 to 100
  Plant response rating, Pigweed, Palmer: 100
[1]; 125 g ai/ha, scale of 0 to 100
  Plant response rating, Pigweed, Palmer: 85
Kochia (Kochia scoparia) [2]; 31 g ai/ha, scale 0 to 100
  Plant response rating, Kochia: 65
Kochia (Kochia scoparia) [2]; 62 g ai/ha, scale 0 to 100
  Plant response rating, Kochia: 65
Kochia (Kochia scoparia) [2]; 125 g ai/ha, scale of 0 to 100
  Plant response rating, Kochia: 98
[3]
  Plant response rating, Barnyardgrass: 100
  Barnyardgrass plant response rating: 100
Kochia (Kochia scoparia) [4]
  Plant response rating, Kochia: 100
  Kochia plant response rating: 100
[5]
  Plant response rating, Foxtail, Giant: 100
  Foxtail, Giant plant response rating: 100
[6]
  Plant response rating, Pigweed: 100
  Pigweed plant response rating: 100
[7]
  Plant response rating, Ragweed: 20
  Ragweed plant response rating: 90
[8]
  Plant response rating, Ryegrass, Italian: 80
  Ryegrass, Italian plant response rating: 100
[9]; 16 g ai/ha, scale of 0 to 100
  Plant response rating, Mustard, Wild: 98
[9]; 31 g ai/ha, scale 0 to 100
  Plant response rating, Mustard, Wild: 90
[9]; 62 g ai/ha
  Mustard, Wild plant response rating: 100
[9]; 125 g ai/ha
  Mustard, Wild plant response rating: 100
[10]
  Barnyardgrass plant response rating: 90
  Barnyardgrass plant response rating (0 to 100 scale): 100
Kochia (Kochia scoparia) [11]
  Kochia plant response rating: 100
  Kochia plant response rating (0 to 100 scale): 100
[12]
  Foxtail, Giant plant response rating: 40
  Foxtail, Giant plant response rating (0 to 100 scale): 90
[13]
  Galium plant response rating: 100
  Galium plant response rating (0 to 100 scale): 100
Corn (Zea mays)
  Corn plant response rating: 20
  Corn plant response rating (0 to 100 scale): 50
[14]
  Pigweed plant response rating: 100
  Pigweed plant response rating (0 to 100 scale): 100
[15]
  Blackgrass plant response rating: 50
  Blackgrass plant response rating (0 to 100 scale): 90
[16]
  Ragweed plant response rating: 30
  Ragweed plant response rating (0 to 100 scale): 60
[17]
  Ryegrass, Italian plant response rating: 20
  Ryegrass, Italian plant response rating (0 to 100 scale): 90
[18]
  Wheat plant response rating: 30
  Wheat plant response rating (0 to 100 scale): 30
[19]; 31 g ai/ha, scale 0 to 100
  Plant response rating, Surinam Grass: 50
[19]; 62 g ai/ha, scale 0 to 100
  Plant response rating, Surinam Grass: 65
[19]; 125 g ai/ha, scale of 0 to 100
  Plant response rating, Surinam Grass: 80

## CCCC(=O)c1c(Oc2ncc(Cl)cn2)cccc1C(F)(F)F [Compound 136]
[1]; 31 g ai/ha, scale 0 to 100
  Plant response rating, Pigweed, Palmer: 75
[1]; 62 g ai/ha, scale 0 to 100
  Plant response rating, Pigweed, Palmer: 100
[1]; 125 g ai/ha, scale of 0 to 100
  Plant response rating, Pigweed, Palmer: 100
Kochia (Kochia scoparia) [2]; 31 g ai/ha, scale 0 to 100
  Plant response rating, Kochia: 80
Kochia (Kochia scoparia) [2]; 62 g ai/ha, scale 0 to 100
  Plant response rating, Kochia: 85
Kochia (Kochia scoparia) [2]; 125 g ai/ha, scale of 0 to 100
  Plant response rating, Kochia: 98
[3]
  Plant response rating, Barnyardgrass: 100
  Barnyardgrass plant response rating: 100
Kochia (Kochia scoparia) [4]
  Plant response rating, Kochia: 100
  Kochia plant response rating: 100
[5]
  Plant response rating, Foxtail, Giant: 100
  Foxtail, Giant plant response rating: 100
[6]
  Plant response rating, Pigweed: 100
  Pigweed plant response rating: 100
[7]
  Plant response rating, Ragweed: 80
  Ragweed plant response rating: 80
[8]
  Plant response rating, Ryegrass, Italian: 20
  Ryegrass, Italian plant response rating: 100
[9]; 16 g ai/ha, scale of 0 to 100
  Plant response rating, Mustard, Wild: 85
[9]; 31 g ai/ha, scale 0 to 100
  Plant response rating, Mustard, Wild: 95
[9]; 62 g ai/ha
  Mustard, Wild plant response rating: 85
[9]; 125 g ai/ha
  Mustard, Wild plant response rating: 100
[10]
  Barnyardgrass plant response rating: 30
  Barnyardgrass plant response rating (0 to 100 scale): 80
Kochia (Kochia scoparia) [11]
  Kochia plant response rating: 80
  Kochia plant response rating (0 to 100 scale): 100
[12]
  Foxtail, Giant plant response rating: 30
  Foxtail, Giant plant response rating (0 to 100 scale): 90
[13]
  Galium plant response rating: 40
  Galium plant response rating (0 to 100 scale): 100
Corn (Zea mays)
  Corn plant response rating: 20
  Corn plant response rating (0 to 100 scale): 50
[14]
  Pigweed plant response rating: 100
  Pigweed plant response rating (0 to 100 scale): 100
[15]
  Blackgrass plant response rating: 50
  Blackgrass plant response rating (0 to 100 scale): 100
[16]
  Ragweed plant response rating: 20
  Ragweed plant response rating (0 to 100 scale): 60
[17]
  Ryegrass, Italian plant response rating: 10
  Ryegrass, Italian plant response rating (0 to 100 scale): 70
[18]
  Wheat plant response rating: 10
  Wheat plant response rating (0 to 100 scale): 20
[19]; 31 g ai/ha, scale 0 to 100
  Plant response rating, Surinam Grass: 25
[19]; 62 g ai/ha, scale 0 to 100
  Plant response rating, Surinam Grass: 10
[19]; 125 g ai/ha, scale of 0 to 100
  Plant response rating, Surinam Grass: 100
